Results from PubChem BioAssay AID1963967 (Molecular Pharmacology Branch, DTP, NCI, 2024).

Test system: 855422-203-R-J1-PDC spheroids with HUVEC/MSC, viability
Assay: Anticancer human tumor 855422-203-R-J1-PDC patient-derived bladder carcinoma cell line growth inhibition [PI3K]
Settings: for viability, T/C: stronger effect = lower value
How it was run: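 Stroma-containing spheroids: tumor line, pooled-donor HUVEC, hMSC. Treatments: targeted agents with PI3K inhibitors. Dosing: clinically relevant, half-log spacing, 10 microM ceiling without known Cmax. Read-out: cell viability.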
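Note: agents incubated with spheroids for one week before read-out.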
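Throughout, for viability, T/C: 100% = DMSO vehicle-treated control wells.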

CC(Nc1ncnc2nc[nH]c12)c1cc2cccc(Cl)c2c(=O)n1-c1ccccc1 (centres undefined)
viability, T/C (compound 0.0316 µM): 107% [middle of 8 runs] | viability, T/C (compound 0.1 µM): 108% [middle of 8 runs] | viability, T/C (compound 0.316 µM): 115% [middle of 8 runs] | viability, T/C (compound 1 µM): 107% [middle of 8 runs] | viability, T/C (compound 3.16 µM): 98.8% [middle of 8 runs] | viability, T/C (compound 10 µM): 86.2% [middle of 8 runs] | IC50 (compound alone, run of 05/09/2023): > 10000 nM

CC(C)n1nc(-c2ccc3oc(N)nc3c2)c2c(N)ncnc21 + Cc1nc(NC(=O)N2CCCC2C(N)=O)sc1-c1ccnc(C(C)(C)C(F)(F)F)c1
IC50 (curve of first compound, second compound 0.0316 µM): 49.5 nM | IC50 (curve of first compound, second compound 0.1 µM): 42.8 nM | IC50 (curve of first compound, second compound 0.316 µM): 33.1 nM | IC50 (curve of first compound, second compound 1 µM): 11.1 nM | IC50 (curve of first compound, second compound 3.16 µM): < 0.316 nM | IC50 (curve of first compound, second compound 10 µM): < 0.316 nM | viability, T/C (second compound 0.0316 µM, first compound 0.000316 µM): 85.8% | viability, T/C (second compound 0.0316 µM, first compound 0.001 µM): 86.9% | viability, T/C (second compound 0.0316 µM, first compound 0.00316 µM): 106% | viability, T/C (second compound 0.0316 µM, first compound 0.01 µM): 87.6% | viability, T/C (second compound 0.0316 µM, first compound 0.0316 µM): 70.7% | viability, T/C (second compound 0.0316 µM, first compound 0.1 µM): 17.8% | viability, T/C (second compound 0.1 µM, first compound 0.000316 µM): 105% | viability, T/C (second compound 0.1 µM, first compound 0.001 µM): 88.5% | viability, T/C (second compound 0.1 µM, first compound 0.00316 µM): 97.2% | viability, T/C (second compound 0.1 µM, first compound 0.01 µM): 82.8% | viability, T/C (second compound 0.1 µM, first compound 0.0316 µM): 63.6% | viability, T/C (second compound 0.1 µM, first compound 0.1 µM): 14.7% | viability, T/C (second compound 0.316 µM, first compound 0.000316 µM): 68.4% | viability, T/C (second compound 0.316 µM, first compound 0.001 µM): 87.6% | viability, T/C (second compound 0.316 µM, first compound 0.00316 µM): 87.4% | viability, T/C (second compound 0.316 µM, first compound 0.01 µM): 75.1% | viability, T/C (second compound 0.316 µM, first compound 0.0316 µM): 51.8% | viability, T/C (second compound 0.316 µM, first compound 0.1 µM): 12.3% | viability, T/C (second compound 1 µM, first compound 0.000316 µM): 67.5% | viability, T/C (second compound 1 µM, first compound 0.001 µM): 66.9% | viability, T/C (second compound 1 µM, first compound 0.00316 µM): 55.9% | viability, T/C (second compound 1 µM, first compound 0.01 µM): 51.4% | viability, T/C (second compound 1 µM, first compound 0.0316 µM): 37.8% | viability, T/C (second compound 1 µM, first compound 0.1 µM): 8.4% | viability, T/C (second compound 3.16 µM, first compound 0.000316 µM): 42.5% | viability, T/C (second compound 3.16 µM, first compound 0.001 µM): 44.7% | viability, T/C (second compound 3.16 µM, first compound 0.00316 µM): 35.8% | viability, T/C (second compound 3.16 µM, first compound 0.01 µM): 34.1% | viability, T/C (second compound 3.16 µM, first compound 0.0316 µM): 20.5% | viability, T/C (second compound 3.16 µM, first compound 0.1 µM): 5.68% | viability, T/C (second compound 10 µM, first compound 0.000316 µM): 22.9% | viability, T/C (second compound 10 µM, first compound 0.001 µM): 19.3% | viability, T/C (second compound 10 µM, first compound 0.00316 µM): 20.3% | viability, T/C (second compound 10 µM, first compound 0.01 µM): 16.2% | viability, T/C (second compound 10 µM, first compound 0.0316 µM): 11.9% | viability, T/C (second compound 10 µM, first compound 0.1 µM): 3.12%
